Test results: ChEMBL document CHEMBL5532655, “Discovery of (R)-4-(8-methoxy-2-methyl-1-(1-phenylethy)-1H-imidazo[4,5-c]quinnolin-7-yl)-3,5-dimethylisoxazole as a potent and selective BET inhibitor for treatment of acute myeloid leukemia (AML) guided by FEP calculation” (Eur J Med Chem, 2024)

How the values were obtained:
MOLM-13 = experiment: cells; conditions: Homo sapiens, MOLM-13, 48 h
Description: Antiproliferative activity against human MOLM-13 cells assessed as inhibition of cell growth incubated for 48 hrs by MTT assay

[1] = molecular target: T1, Bromodomain-containing protein 7 (Homo sapiens) (UniProt Q9NPI1); conditions: time 30.0 min
T1 sequence (whole entry): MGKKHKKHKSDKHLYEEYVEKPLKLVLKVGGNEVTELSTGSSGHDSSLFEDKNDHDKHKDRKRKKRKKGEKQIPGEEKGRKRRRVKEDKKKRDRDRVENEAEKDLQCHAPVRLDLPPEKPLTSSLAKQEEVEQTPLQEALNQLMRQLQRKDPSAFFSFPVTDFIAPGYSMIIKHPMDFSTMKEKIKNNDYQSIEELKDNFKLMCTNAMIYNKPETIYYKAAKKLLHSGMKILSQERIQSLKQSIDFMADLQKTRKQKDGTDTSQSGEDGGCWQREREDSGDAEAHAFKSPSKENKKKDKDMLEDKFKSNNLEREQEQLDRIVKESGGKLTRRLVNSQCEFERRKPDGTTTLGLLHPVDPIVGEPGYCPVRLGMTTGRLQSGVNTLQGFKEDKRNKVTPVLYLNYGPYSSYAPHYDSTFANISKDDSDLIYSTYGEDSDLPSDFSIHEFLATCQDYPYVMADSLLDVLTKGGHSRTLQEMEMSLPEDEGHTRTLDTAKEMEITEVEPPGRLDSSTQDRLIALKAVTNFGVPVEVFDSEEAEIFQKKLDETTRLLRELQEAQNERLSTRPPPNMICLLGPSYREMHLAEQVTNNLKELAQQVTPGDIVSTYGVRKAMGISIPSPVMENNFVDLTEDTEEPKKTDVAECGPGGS

MV4-11 = experiment: cells; conditions: Homo sapiens, MV4-11, 48 h
Description: Antiproliferative activity against human MV4-11 cells assessed as inhibition of cell growth incubated for 48 hrs by MTT assay

[2] = molecular target: CREB-binding protein (Homo sapiens) (UniProt Q92793); experiment: Binding affinity to CREBBP (unknown origin) using biotinylated histone peptide H4 as substrate at 1 uM incubated for 2 hrs by AlphaScreen assay relative to control
Sequence of CREB-binding protein (Homo sapiens) (Q92793 2-2442 limits assumed): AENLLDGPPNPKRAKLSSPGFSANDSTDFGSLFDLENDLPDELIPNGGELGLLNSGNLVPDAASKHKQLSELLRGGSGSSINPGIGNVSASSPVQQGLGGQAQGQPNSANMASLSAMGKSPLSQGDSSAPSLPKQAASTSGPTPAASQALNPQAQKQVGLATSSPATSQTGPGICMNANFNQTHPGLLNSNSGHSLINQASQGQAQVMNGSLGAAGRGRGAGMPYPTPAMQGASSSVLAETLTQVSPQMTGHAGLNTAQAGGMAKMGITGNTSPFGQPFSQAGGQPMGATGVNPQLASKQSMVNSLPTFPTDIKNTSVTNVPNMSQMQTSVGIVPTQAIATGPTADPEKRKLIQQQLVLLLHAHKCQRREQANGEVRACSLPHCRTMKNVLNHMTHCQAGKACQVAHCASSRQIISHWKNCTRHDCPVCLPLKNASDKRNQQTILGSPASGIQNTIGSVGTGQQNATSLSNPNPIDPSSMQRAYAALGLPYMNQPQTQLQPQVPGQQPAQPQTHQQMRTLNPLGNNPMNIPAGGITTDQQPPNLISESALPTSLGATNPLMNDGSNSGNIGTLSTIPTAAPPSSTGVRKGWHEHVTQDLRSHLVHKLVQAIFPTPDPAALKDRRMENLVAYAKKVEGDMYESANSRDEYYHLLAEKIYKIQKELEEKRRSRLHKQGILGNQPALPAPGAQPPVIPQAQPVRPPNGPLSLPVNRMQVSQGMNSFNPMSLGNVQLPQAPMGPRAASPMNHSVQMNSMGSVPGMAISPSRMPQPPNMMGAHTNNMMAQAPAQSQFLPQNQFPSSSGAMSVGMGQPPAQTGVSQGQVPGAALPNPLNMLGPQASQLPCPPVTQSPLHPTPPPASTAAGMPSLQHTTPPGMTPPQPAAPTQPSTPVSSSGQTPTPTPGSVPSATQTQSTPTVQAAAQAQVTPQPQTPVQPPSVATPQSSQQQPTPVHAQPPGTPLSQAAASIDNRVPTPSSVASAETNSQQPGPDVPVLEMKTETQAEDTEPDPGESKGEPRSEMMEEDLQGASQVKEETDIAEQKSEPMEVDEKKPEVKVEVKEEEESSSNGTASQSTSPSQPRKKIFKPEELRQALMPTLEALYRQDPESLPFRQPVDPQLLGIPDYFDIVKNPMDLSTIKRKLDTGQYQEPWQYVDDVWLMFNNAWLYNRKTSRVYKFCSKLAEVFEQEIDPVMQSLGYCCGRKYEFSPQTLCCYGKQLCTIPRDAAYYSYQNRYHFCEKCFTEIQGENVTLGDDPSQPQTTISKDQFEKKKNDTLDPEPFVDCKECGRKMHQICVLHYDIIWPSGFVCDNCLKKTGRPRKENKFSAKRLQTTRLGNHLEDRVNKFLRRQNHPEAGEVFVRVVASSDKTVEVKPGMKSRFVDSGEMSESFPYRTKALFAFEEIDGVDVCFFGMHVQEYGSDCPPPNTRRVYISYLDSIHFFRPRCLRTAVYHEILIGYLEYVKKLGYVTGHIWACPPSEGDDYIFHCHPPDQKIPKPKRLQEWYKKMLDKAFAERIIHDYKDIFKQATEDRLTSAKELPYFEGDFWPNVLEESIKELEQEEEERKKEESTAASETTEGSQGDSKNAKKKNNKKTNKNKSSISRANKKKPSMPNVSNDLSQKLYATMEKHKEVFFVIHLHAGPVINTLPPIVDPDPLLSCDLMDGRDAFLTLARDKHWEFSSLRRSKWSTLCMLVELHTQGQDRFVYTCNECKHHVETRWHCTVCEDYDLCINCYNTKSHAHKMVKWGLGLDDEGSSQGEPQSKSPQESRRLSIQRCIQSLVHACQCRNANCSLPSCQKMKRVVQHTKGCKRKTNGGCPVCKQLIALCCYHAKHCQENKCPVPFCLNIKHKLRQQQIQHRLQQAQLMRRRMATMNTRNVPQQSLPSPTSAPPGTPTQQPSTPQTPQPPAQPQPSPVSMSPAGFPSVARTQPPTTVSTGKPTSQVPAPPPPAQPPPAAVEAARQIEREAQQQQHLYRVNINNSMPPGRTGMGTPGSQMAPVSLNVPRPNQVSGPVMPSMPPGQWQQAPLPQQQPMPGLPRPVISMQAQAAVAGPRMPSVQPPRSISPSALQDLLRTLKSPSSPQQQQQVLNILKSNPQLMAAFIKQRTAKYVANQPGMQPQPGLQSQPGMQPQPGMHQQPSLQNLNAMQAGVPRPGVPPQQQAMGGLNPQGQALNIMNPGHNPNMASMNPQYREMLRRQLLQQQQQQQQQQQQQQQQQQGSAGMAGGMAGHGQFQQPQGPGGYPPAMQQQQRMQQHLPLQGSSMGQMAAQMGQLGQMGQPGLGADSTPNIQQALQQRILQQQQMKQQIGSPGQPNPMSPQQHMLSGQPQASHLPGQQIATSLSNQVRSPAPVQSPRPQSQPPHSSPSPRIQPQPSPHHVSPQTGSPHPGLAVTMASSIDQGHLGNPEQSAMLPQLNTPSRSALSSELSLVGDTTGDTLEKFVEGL

Jurkat = experiment: cells; conditions: Homo sapiens, 48 h
Description: Antiproliferative activity against human Jurkat cells assessed as inhibition of cell growth incubated for 48 hrs by MTT assay

[3] = molecular target: T2, Transcription intermediary factor 1-alpha (Homo sapiens) (UniProt O15164); conditions: time 30.0 min
T2 sequence (whole entry): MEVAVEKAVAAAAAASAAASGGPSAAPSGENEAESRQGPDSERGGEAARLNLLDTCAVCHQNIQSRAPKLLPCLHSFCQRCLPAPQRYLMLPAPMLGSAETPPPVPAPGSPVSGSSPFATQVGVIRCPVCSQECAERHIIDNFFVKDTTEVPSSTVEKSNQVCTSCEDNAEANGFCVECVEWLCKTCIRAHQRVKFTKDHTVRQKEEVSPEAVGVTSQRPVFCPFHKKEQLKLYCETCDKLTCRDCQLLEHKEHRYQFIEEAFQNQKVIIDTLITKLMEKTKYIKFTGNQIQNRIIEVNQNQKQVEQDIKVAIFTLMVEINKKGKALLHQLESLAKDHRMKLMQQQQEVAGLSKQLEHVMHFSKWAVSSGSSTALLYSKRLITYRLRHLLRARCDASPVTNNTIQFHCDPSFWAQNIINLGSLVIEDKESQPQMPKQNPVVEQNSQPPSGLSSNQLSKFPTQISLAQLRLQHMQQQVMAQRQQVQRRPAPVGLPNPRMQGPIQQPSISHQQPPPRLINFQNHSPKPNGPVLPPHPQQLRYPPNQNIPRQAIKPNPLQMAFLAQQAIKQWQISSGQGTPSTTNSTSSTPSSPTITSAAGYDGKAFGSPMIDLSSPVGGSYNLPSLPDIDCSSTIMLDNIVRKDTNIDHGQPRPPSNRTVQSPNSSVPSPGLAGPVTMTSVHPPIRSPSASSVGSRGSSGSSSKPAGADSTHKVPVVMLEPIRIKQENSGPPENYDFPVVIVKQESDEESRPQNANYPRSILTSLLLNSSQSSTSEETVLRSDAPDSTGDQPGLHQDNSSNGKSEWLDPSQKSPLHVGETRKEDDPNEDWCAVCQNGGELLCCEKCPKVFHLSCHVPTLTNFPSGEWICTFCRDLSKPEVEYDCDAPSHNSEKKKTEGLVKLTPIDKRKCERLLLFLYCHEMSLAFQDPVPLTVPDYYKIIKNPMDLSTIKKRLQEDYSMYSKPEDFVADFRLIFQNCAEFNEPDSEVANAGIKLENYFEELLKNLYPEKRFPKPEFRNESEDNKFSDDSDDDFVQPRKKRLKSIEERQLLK

Homo sapiens = species on record: Homo sapiens; conditions: time 30.0 min
[4] = molecular target: Histone acetyltransferase KAT2B (Homo sapiens) (UniProt Q92831); conditions: time 30.0 min
Sequence of Histone acetyltransferase KAT2B (Homo sapiens) (Q92831 whole entry, looked up): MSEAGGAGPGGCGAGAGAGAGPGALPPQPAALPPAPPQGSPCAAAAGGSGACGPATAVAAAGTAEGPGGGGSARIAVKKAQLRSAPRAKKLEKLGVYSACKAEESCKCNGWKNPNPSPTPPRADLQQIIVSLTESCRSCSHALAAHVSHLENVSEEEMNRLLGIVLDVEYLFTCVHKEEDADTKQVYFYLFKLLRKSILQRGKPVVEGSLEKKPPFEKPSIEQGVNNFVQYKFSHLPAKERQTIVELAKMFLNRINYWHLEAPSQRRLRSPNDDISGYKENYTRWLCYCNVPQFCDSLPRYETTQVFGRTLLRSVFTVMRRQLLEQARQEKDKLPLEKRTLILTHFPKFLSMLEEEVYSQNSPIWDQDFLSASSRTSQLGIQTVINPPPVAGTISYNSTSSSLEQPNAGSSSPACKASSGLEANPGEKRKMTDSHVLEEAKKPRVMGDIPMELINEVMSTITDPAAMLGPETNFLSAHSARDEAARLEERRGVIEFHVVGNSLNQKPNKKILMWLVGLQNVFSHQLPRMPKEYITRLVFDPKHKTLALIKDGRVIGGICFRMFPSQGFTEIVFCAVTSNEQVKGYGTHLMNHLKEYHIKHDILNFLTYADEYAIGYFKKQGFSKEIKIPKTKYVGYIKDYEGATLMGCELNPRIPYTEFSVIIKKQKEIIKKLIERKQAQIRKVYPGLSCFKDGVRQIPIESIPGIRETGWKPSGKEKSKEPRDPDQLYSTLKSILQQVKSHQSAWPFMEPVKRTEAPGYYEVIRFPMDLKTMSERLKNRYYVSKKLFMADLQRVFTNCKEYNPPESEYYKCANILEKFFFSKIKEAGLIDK

[5] = molecular target: T3, Bromodomain-containing protein 9 (Homo sapiens) (UniProt Q9H8M2); conditions: time 30.0 min
T3 sequence (whole entry): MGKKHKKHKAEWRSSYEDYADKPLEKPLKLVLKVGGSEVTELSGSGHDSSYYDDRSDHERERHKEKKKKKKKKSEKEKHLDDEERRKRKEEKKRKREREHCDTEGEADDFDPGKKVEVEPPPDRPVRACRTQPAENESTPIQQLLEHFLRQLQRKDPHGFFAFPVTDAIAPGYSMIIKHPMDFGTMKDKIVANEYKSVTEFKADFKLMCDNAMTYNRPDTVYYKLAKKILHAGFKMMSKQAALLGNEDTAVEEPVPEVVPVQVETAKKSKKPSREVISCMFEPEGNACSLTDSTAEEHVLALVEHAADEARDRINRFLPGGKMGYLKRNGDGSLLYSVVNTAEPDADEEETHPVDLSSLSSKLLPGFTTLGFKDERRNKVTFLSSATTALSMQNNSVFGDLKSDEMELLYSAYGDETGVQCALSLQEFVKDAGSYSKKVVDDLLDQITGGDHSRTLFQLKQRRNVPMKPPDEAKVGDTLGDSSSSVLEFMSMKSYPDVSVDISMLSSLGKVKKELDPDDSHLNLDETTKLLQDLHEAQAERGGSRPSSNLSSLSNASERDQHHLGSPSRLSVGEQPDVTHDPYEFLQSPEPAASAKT

MM1.S = experiment: cells; conditions: Homo sapiens, 48 h
Description: Antiproliferative activity against human MM1.S cells assessed as inhibition of cell growth incubated for 48 hrs by MTT assay

[6] = molecular target: SWI/SNF-related matrix-associated actin-dependent regulator of chromatin subfamily A member 2 (Homo sapiens) (UniProt P51531); experiment: Binding affinity to SMARCA2 (unknown origin) using biotinylated histone peptide H4 as substrate at 1 uM incubated for 2 hrs by AlphaScreen assay relative to control
Sequence of SWI/SNF-related matrix-associated actin-dependent regulator of chromatin subfamily A member 2 (Homo sapiens) (P51531 whole entry): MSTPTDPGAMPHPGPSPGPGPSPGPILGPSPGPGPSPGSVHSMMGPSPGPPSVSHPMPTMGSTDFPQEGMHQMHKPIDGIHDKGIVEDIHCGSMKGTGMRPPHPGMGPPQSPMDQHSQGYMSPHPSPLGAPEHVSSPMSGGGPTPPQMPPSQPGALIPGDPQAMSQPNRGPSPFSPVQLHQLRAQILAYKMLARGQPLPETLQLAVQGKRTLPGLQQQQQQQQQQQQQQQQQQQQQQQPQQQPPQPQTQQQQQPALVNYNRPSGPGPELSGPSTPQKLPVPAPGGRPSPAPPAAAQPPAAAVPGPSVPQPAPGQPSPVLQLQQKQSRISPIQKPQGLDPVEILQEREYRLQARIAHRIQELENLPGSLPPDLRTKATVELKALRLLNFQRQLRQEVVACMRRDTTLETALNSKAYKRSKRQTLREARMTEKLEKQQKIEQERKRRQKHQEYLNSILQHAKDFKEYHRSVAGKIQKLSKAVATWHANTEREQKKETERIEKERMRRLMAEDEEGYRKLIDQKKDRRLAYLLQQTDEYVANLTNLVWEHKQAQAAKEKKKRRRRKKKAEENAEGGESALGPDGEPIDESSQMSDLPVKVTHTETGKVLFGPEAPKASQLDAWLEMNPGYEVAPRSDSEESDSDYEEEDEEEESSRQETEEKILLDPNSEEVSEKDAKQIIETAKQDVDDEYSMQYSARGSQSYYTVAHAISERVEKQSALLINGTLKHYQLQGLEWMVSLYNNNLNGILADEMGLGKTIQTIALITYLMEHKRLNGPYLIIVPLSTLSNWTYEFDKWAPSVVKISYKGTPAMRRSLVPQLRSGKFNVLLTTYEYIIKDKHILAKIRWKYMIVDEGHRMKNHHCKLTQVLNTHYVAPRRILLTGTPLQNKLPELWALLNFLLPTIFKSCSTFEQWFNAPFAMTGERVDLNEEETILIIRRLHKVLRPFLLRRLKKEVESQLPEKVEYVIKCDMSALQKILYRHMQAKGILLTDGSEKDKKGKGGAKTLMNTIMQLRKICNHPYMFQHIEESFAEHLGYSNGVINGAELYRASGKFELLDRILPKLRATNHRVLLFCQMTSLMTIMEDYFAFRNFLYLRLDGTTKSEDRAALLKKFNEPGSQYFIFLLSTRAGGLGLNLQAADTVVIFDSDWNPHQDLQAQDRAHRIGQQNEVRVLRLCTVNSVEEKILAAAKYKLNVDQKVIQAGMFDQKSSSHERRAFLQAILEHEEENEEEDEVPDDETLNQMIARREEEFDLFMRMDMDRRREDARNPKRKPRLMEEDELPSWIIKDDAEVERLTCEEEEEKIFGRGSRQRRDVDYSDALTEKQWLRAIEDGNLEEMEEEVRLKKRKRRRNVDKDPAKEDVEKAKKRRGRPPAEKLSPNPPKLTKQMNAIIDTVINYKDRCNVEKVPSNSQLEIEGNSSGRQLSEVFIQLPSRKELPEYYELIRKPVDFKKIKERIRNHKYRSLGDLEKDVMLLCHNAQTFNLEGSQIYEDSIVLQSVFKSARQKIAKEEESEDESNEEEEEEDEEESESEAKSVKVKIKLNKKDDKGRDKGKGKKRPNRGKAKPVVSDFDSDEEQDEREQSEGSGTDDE

| Structure (SMILES) | IC50 (MOLM-13) [nM] | ΔTm [1] [°C] | IC50 (MV4-11) [nM] | Activity [2] [%] | IC50 (Jurkat) [nM] | ΔTm [3] [°C] | ΔTm (Homo sapiens) [°C] | ΔTm [4] [°C] | ΔTm [5] [°C] | IC50 (MM1.S) [nM] | Activity [6] [%] |
| --- | --- | --- | --- | --- | --- | --- | --- | --- | --- | --- | --- |
| COc1cc2c(cc1-c1c(C)n[nH]c1C)ncc1nc(C)n([C@H](C)c3ccccc3)c12 | 660 | 0 | 800 | < 30 | 730 | 0 | 0 | 0 | 0 | 480 | < 30 |
| COc1cc2c(cc1-c1c(C)noc1C)ncc1nc(C)n([C@H](C)c3ccccc3)c12 | 430 | 0 | 190 | 50 | 2080 | 0 | 0 | 0 | 0 | 530 | < 30 |
